Measurements as given in patent US20080096449A1, “USE OF METALLIC GLUCONATE SALTS IN THE PRODUCTION OF ANTIMICROBIALLY ACTIVE SUBSTRATES” (priority 2002, published 2008).

Experiments:
Assay in all cases: Minimum inhibitory concentration (MIC)
Type in all cases: cell-based
[1] = tested on: Staphylococcus aureus ATCC 6538; conditions: strain SA
[2] = tested on: Pseudomonas aeruginosa ATCC 9027; conditions: strain PA
[3] = tested on: Escherichia coli ATCC 11229; conditions: strain EC
[4] = tested on: Candida albicans ATCC 10231; conditions: strain CA
[5] = tested on: Aspergillus niger ATCC 16404; conditions: strain AN

## zinc gluconate
[1]
  MIC: 5000 ppm
[2]
  MIC: 12500 ppm
[3]
  MIC: 6250 ppm
[4]
  MIC: 3120 ppm
[5]
  MIC: 6250 ppm
